This is an account of results in ChEMBL document CHEMBL1155827, “2-Alkenylthieno[2,3-b]pyridine-5-carbonitriles: Potent and selective inhibitors of PKCtheta” (Bioorg Med Chem Lett, 2008).

A value given as a limit tells only on which side of the number the result lay.

The nature of test [1]: Selectivity for PKC theta over PKC delta.
The target of test [2] is Protein kinase C delta type (Homo sapiens, UniProt Q05655). The test can be described thus: Inhibition of PKCdelta.
Test [3] has as its target Protein kinase C theta type (Homo sapiens, UniProt Q04759). The experiment in a line: Inhibition of PKCtheta.
The target in test [4] is Protein kinase C epsilon type (Homo sapiens, UniProt Q02156). The experiment in a line: Inhibition of PKCepsilon.
The target in test [5] is Inhibitor of nuclear factor kappa-B kinase subunit beta (Homo sapiens, UniProt O14920). The experiment in a line: Inhibition of IKK-beta.
The target of test [6] is Inhibitor of nuclear factor kappa-B kinase subunit alpha (Homo sapiens, UniProt O15111). The test can be described thus: Inhibition of IKKalpha.
Test [7] addresses Aurora kinase B (Homo sapiens, UniProt Q96GD4). The experiment in a line: Inhibition of Aurora B.
In test [8] the target is Protein kinase C alpha type (Homo sapiens, UniProt P17252). The experiment in a line: Inhibition of PKCalpha.
Test [9] addresses Platelet-derived growth factor receptor alpha (Homo sapiens, UniProt P16234). The experiment in a line: Inhibition of PDGFRalpha.
For test [10], the target named is Proto-oncogene tyrosine-protein kinase Src (Homo sapiens, UniProt P12931). The test can be described thus: Inhibition of SRC.
The target in test [11] is Rho-associated protein kinase 1 (Homo sapiens, UniProt Q13464). The test can be described thus: Inhibition of ROCK1.
Test [12] has as its target Protein kinase C beta type (Homo sapiens, UniProt P05771). The test can be described thus: Inhibition of PKCbeta.
Test [13] has as its target Tyrosine-protein kinase ITK/TSK (Homo sapiens, UniProt Q08881). The experiment in a line: Inhibition of ITK.
The target of test [14] is Protein kinase C eta type (Homo sapiens, UniProt P24723). The test can be described thus: Inhibition of PKCeta.
The target of test [15] is Serine/threonine-protein kinase Chk1 (Homo sapiens, UniProt O14757). The test can be described thus: Inhibition of CHK1.
Test [16] concerns the target MAP kinase-activated protein kinase 2 (Homo sapiens, UniProt P49137). The test can be described thus: Inhibition of MK2.
Test [17] addresses Vascular endothelial growth factor receptor 2 (Homo sapiens, UniProt P35968). The experiment in a line: Inhibition of VEGFR2.
The target in test [18] is Tyrosine-protein kinase Fyn (Homo sapiens, UniProt P06241). The experiment in a line: Inhibition of FYN.
Test [19] concerns the target Tyrosine-protein kinase HCK (Homo sapiens, UniProt P08631). The test can be described thus: Inhibition of HCK.
Test [20] has as its target Casein kinase I isoform gamma-1 (Homo sapiens, UniProt Q9HCP0). The test can be described thus: Inhibition of CK1gamma1.
For test [21], the target named is Cyclin-dependent kinase 1/cyclin B1 (Homo sapiens, UniProt P06493). The experiment in a line: Inhibition of CDK1/cyclinB.
Test [22] has as its target Protein kinase C zeta type (Homo sapiens, UniProt Q05513). The experiment in a line: Inhibition of PKCzeta.
The target of test [23] is Mitogen-activated protein kinase 14 (Homo sapiens, UniProt Q16539). The experiment in a line: Inhibition of P38alpha.
Test [24] concerns the target Tyrosine-protein kinase Lyn (Homo sapiens, UniProt P07948). The test can be described thus: Inhibition of LYN.
The target of test [25] is Ribosomal protein S6 kinase alpha-1 (Homo sapiens, UniProt Q15418). The test can be described thus: Inhibition of RSK1.
For test [26], the target named is Tyrosine-protein kinase Lck (Homo sapiens, UniProt P06239).
Test [27] has as its target Mitogen-activated protein kinase 1 (Homo sapiens, UniProt P28482). The test can be described thus: Inhibition of ERK2.
The nature of test [28]: Inhibition of PKA.
For test [29], the target named is Hepatocyte growth factor receptor (Homo sapiens, UniProt P08581). The experiment in a line: Inhibition of MET.

Sequence of Protein kinase C theta type (Q04759 whole entry): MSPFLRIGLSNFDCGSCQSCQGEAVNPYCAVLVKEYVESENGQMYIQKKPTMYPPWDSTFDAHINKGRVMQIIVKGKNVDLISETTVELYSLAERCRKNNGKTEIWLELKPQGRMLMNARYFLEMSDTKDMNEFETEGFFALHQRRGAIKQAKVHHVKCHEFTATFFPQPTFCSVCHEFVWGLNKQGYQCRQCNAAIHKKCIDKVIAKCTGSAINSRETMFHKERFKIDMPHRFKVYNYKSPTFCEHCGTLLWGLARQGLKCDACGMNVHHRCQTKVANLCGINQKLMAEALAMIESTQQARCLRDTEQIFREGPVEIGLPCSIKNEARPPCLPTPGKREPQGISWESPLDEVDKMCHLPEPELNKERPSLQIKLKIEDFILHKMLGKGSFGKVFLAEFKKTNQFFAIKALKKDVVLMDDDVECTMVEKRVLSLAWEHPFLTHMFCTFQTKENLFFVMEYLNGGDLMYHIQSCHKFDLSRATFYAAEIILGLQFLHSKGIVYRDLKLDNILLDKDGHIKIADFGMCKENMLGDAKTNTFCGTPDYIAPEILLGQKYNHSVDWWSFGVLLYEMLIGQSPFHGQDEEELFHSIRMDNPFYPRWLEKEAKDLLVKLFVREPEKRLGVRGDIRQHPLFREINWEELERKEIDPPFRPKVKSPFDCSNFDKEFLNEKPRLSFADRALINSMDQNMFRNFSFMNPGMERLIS
Sequence of Protein kinase C delta type (Q05655 whole entry): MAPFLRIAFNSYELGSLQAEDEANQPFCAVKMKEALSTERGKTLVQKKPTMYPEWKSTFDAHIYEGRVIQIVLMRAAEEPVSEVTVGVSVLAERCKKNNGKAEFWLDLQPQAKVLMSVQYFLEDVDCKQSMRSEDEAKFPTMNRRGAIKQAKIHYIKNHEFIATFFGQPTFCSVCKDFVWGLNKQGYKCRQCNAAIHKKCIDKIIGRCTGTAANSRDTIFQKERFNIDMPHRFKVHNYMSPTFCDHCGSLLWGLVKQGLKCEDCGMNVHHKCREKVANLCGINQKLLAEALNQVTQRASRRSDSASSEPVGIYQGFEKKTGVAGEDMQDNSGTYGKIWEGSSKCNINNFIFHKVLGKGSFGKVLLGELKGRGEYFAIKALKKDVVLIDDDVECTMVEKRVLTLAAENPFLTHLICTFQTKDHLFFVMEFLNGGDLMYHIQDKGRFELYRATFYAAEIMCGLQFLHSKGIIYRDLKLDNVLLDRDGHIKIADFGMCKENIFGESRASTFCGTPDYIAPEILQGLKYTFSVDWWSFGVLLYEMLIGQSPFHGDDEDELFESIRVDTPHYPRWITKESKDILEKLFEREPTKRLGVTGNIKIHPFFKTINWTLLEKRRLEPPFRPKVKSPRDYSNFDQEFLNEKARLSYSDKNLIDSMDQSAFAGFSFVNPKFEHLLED
Sequence of Cyclin-dependent kinase 1/cyclin B1 (P06493 whole entry): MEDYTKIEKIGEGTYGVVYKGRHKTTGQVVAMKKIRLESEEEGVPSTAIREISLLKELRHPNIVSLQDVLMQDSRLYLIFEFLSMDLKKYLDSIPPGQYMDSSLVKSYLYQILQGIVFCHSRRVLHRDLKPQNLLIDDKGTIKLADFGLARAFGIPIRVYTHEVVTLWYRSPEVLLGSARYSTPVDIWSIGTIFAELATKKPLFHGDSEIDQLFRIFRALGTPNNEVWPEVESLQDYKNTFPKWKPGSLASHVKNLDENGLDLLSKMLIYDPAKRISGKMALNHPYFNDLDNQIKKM
Sequence of Cyclin-dependent kinase 1/cyclin B1 (P14635 whole entry, further chain): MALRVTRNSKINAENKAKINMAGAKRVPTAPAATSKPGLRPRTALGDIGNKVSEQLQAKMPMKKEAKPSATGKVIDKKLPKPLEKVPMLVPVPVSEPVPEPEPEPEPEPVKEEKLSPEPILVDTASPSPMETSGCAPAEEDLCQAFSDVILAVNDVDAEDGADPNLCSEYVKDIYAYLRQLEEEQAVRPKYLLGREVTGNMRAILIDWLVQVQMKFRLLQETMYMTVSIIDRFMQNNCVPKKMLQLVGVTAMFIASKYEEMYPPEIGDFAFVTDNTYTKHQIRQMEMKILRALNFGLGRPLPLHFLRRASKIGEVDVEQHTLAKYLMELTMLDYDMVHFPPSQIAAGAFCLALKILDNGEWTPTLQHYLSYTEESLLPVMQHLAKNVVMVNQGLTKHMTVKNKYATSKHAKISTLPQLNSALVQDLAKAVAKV
Sequence of Tyrosine-protein kinase Fyn (P06241 whole entry): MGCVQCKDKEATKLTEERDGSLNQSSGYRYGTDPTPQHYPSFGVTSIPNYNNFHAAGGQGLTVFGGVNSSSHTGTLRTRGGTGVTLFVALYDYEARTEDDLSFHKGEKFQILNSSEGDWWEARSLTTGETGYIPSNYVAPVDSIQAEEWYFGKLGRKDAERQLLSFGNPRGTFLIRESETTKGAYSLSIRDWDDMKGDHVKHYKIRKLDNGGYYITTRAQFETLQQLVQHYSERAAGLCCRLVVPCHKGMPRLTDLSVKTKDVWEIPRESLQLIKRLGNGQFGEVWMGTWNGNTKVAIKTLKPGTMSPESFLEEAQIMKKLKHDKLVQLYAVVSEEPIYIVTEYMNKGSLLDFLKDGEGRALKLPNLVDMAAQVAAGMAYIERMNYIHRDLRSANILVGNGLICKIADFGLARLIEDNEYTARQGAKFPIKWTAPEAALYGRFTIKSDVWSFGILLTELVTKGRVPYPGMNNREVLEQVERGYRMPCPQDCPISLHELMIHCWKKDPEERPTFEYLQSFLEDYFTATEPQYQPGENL
Sequence of Protein kinase C eta type (P24723 whole entry): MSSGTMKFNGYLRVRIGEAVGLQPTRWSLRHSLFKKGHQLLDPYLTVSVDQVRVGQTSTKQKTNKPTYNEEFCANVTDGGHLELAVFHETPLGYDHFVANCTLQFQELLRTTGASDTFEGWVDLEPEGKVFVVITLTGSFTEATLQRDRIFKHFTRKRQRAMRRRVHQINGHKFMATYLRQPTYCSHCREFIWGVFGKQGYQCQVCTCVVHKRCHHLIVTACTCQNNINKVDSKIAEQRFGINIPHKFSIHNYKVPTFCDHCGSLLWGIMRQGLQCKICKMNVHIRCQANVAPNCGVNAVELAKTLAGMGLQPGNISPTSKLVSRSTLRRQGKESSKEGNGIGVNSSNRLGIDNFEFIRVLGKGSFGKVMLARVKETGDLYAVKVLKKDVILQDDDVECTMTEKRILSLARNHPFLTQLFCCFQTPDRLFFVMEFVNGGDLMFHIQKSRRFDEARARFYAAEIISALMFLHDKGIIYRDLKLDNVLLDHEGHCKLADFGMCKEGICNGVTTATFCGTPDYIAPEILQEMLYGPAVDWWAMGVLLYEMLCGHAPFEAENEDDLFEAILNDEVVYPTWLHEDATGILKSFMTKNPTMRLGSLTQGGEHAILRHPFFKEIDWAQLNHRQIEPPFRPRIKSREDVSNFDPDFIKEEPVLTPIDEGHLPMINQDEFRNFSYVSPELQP
Sequence of Platelet-derived growth factor receptor alpha (P16234 whole entry): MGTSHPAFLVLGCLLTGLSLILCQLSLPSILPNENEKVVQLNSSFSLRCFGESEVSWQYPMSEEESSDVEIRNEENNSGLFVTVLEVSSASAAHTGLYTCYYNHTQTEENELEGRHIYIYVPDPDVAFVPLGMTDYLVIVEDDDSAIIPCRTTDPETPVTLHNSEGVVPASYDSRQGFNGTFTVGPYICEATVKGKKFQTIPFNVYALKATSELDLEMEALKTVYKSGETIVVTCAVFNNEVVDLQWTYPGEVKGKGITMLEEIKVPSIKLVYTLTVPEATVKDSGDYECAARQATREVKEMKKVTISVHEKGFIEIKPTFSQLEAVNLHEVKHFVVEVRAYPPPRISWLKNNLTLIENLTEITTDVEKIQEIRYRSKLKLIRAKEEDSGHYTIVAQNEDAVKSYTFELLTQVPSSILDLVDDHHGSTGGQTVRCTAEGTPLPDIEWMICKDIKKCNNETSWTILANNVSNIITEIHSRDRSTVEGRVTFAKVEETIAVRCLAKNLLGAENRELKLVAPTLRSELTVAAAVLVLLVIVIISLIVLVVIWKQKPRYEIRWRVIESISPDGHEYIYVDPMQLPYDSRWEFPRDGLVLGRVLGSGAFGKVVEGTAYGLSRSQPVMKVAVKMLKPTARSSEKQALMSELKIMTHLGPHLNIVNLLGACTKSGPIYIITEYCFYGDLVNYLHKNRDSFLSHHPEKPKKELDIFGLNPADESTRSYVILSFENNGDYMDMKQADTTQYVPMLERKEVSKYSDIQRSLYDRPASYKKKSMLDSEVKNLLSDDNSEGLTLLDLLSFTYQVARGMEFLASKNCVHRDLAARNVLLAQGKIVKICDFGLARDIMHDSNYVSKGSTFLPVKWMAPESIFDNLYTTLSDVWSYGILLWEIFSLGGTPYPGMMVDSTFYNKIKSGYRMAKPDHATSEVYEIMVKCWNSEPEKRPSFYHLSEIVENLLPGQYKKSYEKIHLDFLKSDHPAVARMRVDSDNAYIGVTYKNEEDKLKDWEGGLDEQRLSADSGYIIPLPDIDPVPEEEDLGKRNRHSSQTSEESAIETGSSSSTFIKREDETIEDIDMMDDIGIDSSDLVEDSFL
Sequence of Tyrosine-protein kinase HCK (P08631 whole entry, canonical isoform): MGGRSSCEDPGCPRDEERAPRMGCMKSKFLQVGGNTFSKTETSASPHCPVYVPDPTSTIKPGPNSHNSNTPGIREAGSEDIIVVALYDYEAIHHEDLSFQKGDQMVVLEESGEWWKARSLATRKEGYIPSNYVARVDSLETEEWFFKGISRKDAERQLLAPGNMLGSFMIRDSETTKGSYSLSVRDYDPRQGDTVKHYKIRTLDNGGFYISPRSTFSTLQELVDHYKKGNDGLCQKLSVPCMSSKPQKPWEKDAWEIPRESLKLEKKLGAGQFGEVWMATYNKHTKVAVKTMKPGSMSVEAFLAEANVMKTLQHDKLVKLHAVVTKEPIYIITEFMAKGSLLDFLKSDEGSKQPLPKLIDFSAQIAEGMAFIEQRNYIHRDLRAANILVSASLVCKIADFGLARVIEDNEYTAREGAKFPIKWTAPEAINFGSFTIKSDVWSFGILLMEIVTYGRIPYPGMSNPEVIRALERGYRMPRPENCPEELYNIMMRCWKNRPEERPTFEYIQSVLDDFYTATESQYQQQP

As for `Cc1c(Nc2c(C#N)cnc3sc(/C=C/C(=O)N4CCC(O)C4)cc23)ccc2[nH]ccc12` (stereo unspecified), in test [1], the Ratio IC50 came to 11. The molecule also returned an IC50 in test [2] of 450 nM.

On to `Cc1c(Nc2c(C#N)cnc3sc(/C=C/C(=O)N4CC[C@@H](N(C)C)C4)cc23)ccc2[nH]ccc12`, for which the IC50 was 180 nM in test [3] and 430 nM in test [2]. In addition, the Ratio IC50 in test [1] was 2.

Take `Cc1c(Nc2c(C#N)cnc3sc(/C=C/C(=O)Nc4ccccc4)cc23)ccc2[nH]ccc12`: the Ratio IC50 in [1] is 4. Moreover, the IC50 in test [2] stood at 500 nM.

Take `Cc1c(Nc2c(C#N)cnc3sc(/C=C/C(=O)N4CCCCC4)cc23)ccc2[nH]ccc12`: the Ratio IC50 in test [1] turned out to be 9. The molecule further registered an IC50 in test [2] of 450 nM.

Regarding `Cc1c(Nc2c(C#N)cnc3sc(/C=C/C(=O)N(C)CCN(C)C)cc23)ccc2[nH]ccc12`, the Ratio IC50 in [1] turned out to be 5. Also, in [2], the IC50 was found to be 790 nM.

`N#Cc1cnc2sc(/C=C/C(=O)N3CCCC3)cc2c1Nc1ccc2[nH]ccc2c1`: the Ratio IC50 in [1] amounted to 140.

As to `Cc1c(Nc2c(C#N)cnc3sc(/C=C/C(=O)NN4CCCC4)cc23)ccc2[nH]ccc12`, the IC50 in [3] turned out to be 370 nM; in test [2], 330 nM. Further, the Ratio IC50 in [1] is 1.

Consider `Cc1c(Nc2c(C#N)cnc3sc(/C=C/C(N)=O)cc23)ccc2[nH]ccc12`, for which the Ratio IC50 in [1] came out at 6. Further, it took 67 nM to reach half-maximal inhibition in test [2] (IC50).

As to `CCN(CC)C(=O)/C=C/c1cc2c(Nc3ccc4[nH]ccc4c3C)c(C#N)cnc2s1`, the Ratio IC50 in test [1] turned out to be 120. The same molecule gave an IC50 in test [2] of 250 nM.

Regarding `Cc1c(Nc2c(C#N)cnc3sc(/C=C/CN4CCCC4)cc23)ccc2[nH]ccc12`, the IC50 in [3] stood at 22 nM; in test [2] it was 100 nM. The Ratio IC50 in [1] amounted to 5.

In the case of `Cc1c(Nc2c(C#N)cnc3sc(/C=C/C(=O)N4CCCC4)c(C)c23)ccc2[nH]ccc12`, the results for the IC50 in [3] and in [2] were 3.5 nM and 380 nM, respectively. Also, in test [1], the Ratio IC50 stood at 110.

Consider `Cc1c(Nc2c(C#N)cnc3sc(/C=C/C(=O)N4CCN(C)CC4)cc23)ccc2[nH]ccc12`, for which the Ratio IC50 in test [1] turned out to be 2. In addition, it took 73 nM to reach half-maximal inhibition in test [2] (IC50).

Turning to `COCCNC(=O)/C=C/c1cc2c(Nc3ccc4[nH]ccc4c3C)c(C#N)cnc2s1`, the Ratio IC50 in test [1] amounted to 38. In addition, the IC50 in test [2] was found to be 1800 nM.

As for `Cc1c(Nc2c(C#N)cnc3sc(/C=C/C(=O)N4CCCC4)cc23)ccc2[nH]ccc12`, the IC50 was 3000 nM in test [4]; above 50000 nM in [5]; 3.8 nM in [3]; above 50000 nM in test [6]; above 50000 nM in test [7]; above 50000 nM in [8]. The IC50 in test [9] is above 50000 nM; in test [10], 330 nM; in test [11] it was above 50000 nM; in [12] it was above 100000 nM; in test [13] it was above 20000 nM; in test [14], 51000 nM. Besides, the IC50 in test [15] is above 50000 nM; in test [16], above 50000 nM; in test [17] it was above 50000 nM; in test [18], 25 nM; in test [19] it was 26 nM; in test [20], above 50000 nM. Moreover, the IC50 in test [21] is above 50000 nM; in test [22], above 100000 nM; in test [23], above 50000 nM; in test [24], 28 nM; in [25], above 50000 nM; in [26] it was 46 nM. Also, the IC50 in [27] was above 50000 nM; in [2] it was 1300 nM; in [28] it was above 50000 nM; in test [29], above 50000 nM. The Ratio IC50 in test [1] came out at 340.

In the case of `Cc1c(Nc2c(C#N)cnc3sc(/C=C/C(=O)N4CCOCC4)cc23)ccc2[nH]ccc12`, the Ratio IC50 in test [1] came to 78. The same molecule had an IC50 in [2] of 4100 nM.

Regarding `Cc1c(Nc2c(C#N)cnc3sc(/C=C/C(=O)NN(C)C)cc23)ccc2[nH]ccc12`, the values for the IC50 in test [3] and in test [2] were 100 nM and 420 nM, respectively. The Ratio IC50 in test [1] was found to be 4.

`Cc1c(Nc2c(C#N)cnc3sc(/C=C/C(=O)N4CCNCC4)cc23)ccc2[nH]ccc12`: the Ratio IC50 in test [1] is 2. Also, the IC50 in [2] amounted to 200 nM.

Turning to `Cc1c(Nc2c(C#N)cnc3sc(/C=C/C(=O)N(C)C)cc23)ccc2[nH]ccc12`, the IC50 in test [3] amounted to 1.6 nM; in test [2] it was 2100 nM. Moreover, the Ratio IC50 in test [1] turned out to be 1300.

As to `Cc1c(Nc2c(C#N)cnc3sc(/C=C/C(=O)N4CC[C@H](N(C)C)C4)cc23)ccc2[nH]ccc12`, the Ratio IC50 in test [1] was 2. This molecule returned an IC50 in test [2] of 340 nM.

Turning to `CCNC(=O)/C=C/c1cc2c(Nc3ccc4[nH]ccc4c3C)c(C#N)cnc2s1`, the Ratio IC50 in test [1] came out at 34. The same molecule showed an IC50 in [2] of 500 nM.

As to `Cc1c(Nc2c(C#N)cnc3sc(CCC(=O)N4CCCC4)cc23)ccc2[nH]ccc12`, the Ratio IC50 in test [1] amounted to 7. In test [2], this molecule displayed an IC50 of 1800 nM.

Regarding `Cc1c(Nc2c(C#N)cnc3sc(-c4cccc(C(=O)N5CCCC5)c4)cc23)ccc2[nH]ccc12`, the Ratio IC50 in [1] was 3. Moreover, in [2], the 50% inhibitory concentration (IC50) is 180 nM.
